Consider two compounds from EP4703358A1, “BENZO SIX-MEMBERED HETEROCYCLIC GSPT1 PROTEIN DEGRADATION AGENT AND USE THEREOF” (China Pharmaceutical University, priority 2023, dated 2024).

Structures are written as SMILES. Read-outs that look alike come from different tables or passages of the source. Some results are limits rather than exact numbers.

The subject of series [1] is KG-1 cells. Put plainly: Antiproliferative activity against KG-1 cells (CCK8). It counts as cell-based. The settings on record: Homo sapiens, 72 hours. In short, it runs like this:
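Cells seeded at 5000/well in RPMI + 10% FBS, grown 24 h at 37 °C/5% CO2, then exposed to a 9-point dilution series (triplicate wells) for 72 h. Viability read by CCK8; IC50 calculated from growth inhibition.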

Series [2] has as its system U937. Put plainly: Antiproliferative activity against tumor cells (CCK8), U937. It counts as cell-based. The settings on record: Homo sapiens, U-937, 72 hours. As to the method: (§1) U937, MOLM-13, and MV4-11 cells (ATCC) in the logarithmic growth phase were separately diluted in a culture medium and plated onto 96-well plates at 5000 cells/well, and the plates were incubated in an incubator at 37 °C with 5% CO2 for 24 hours. 10 mM stock solutions of the compounds in DMSO were prepared and diluted with the culture medium to set 9 concentration gradients. Three replicate wells were set for each concentration. After compound addition, the plates were incubated in an incubator at 37 °C with 5% CO2 for 72 hours. The cell proliferation was assessed using the CCK8 method. The cell growth inhibition IC50 values of the compounds were determined using an enzyme labeling method. The IC50 values were calculated using GraphPad Prism 7 software.
(§2) The antiproliferative activity of the compounds against the tumor cells is shown in Table 3, where A represents IC50 < 1 nM, B represents 1 ≤ IC50 < 10 nM, C represents 10 nM ≤ IC50 < 100 nM, D represents 100 nM ≤ IC50 < 1000 nM, and E represents IC50 ≥ 1000 nM. Table 3. The antiproliferative activity of compounds against tumor cells

The test system of series [3] is MV4-11. The series is described as follows: Antiproliferative activity against tumor cells (CCK8), MV4-11. The class given is cell-based. The conditions noted are these: Homo sapiens, MV4-11 cells, 72 hours. As to the method:
as §1, §2

In series [4] the test system is MOLM-13. Put plainly: Antiproliferative activity against tumor cells (CCK8), MOLM-13. The conditions noted are these: Homo sapiens, MOLM-13 cells, 72 hours. It counts as cell-based. As to the method: as §1, §2
The target in series [5] is T1, GSPT1 protein (Homo sapiens, UniProt P15170+Q96SW2).
T1 construct: host or cells: KG-1 cells
T1 sequence (P15170 whole entry): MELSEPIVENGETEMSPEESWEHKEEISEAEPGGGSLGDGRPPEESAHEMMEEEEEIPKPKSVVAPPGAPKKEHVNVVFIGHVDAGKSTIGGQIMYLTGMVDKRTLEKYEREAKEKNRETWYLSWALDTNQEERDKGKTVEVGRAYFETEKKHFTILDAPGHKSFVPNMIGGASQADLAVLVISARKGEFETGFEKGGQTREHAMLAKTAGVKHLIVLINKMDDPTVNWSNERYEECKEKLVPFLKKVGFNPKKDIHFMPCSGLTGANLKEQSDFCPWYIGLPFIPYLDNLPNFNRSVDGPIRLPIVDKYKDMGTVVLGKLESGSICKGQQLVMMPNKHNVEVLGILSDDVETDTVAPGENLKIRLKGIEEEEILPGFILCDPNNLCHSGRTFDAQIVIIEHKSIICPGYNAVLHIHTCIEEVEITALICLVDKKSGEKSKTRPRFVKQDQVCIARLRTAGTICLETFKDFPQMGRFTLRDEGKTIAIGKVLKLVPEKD
T1 sequence (Q96SW2 whole entry): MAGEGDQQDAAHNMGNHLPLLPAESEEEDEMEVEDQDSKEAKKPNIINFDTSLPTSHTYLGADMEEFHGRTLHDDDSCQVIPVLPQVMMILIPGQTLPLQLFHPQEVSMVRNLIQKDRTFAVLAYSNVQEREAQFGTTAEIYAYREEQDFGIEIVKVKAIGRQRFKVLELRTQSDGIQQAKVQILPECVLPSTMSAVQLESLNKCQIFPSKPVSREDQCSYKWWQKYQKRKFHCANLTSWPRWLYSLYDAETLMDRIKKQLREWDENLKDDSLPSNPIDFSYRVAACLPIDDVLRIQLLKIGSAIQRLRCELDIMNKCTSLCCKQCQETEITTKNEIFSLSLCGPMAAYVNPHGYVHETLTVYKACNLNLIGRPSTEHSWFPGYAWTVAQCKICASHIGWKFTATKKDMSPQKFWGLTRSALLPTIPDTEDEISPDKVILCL
T1 sequence (Q16531 whole entry partner): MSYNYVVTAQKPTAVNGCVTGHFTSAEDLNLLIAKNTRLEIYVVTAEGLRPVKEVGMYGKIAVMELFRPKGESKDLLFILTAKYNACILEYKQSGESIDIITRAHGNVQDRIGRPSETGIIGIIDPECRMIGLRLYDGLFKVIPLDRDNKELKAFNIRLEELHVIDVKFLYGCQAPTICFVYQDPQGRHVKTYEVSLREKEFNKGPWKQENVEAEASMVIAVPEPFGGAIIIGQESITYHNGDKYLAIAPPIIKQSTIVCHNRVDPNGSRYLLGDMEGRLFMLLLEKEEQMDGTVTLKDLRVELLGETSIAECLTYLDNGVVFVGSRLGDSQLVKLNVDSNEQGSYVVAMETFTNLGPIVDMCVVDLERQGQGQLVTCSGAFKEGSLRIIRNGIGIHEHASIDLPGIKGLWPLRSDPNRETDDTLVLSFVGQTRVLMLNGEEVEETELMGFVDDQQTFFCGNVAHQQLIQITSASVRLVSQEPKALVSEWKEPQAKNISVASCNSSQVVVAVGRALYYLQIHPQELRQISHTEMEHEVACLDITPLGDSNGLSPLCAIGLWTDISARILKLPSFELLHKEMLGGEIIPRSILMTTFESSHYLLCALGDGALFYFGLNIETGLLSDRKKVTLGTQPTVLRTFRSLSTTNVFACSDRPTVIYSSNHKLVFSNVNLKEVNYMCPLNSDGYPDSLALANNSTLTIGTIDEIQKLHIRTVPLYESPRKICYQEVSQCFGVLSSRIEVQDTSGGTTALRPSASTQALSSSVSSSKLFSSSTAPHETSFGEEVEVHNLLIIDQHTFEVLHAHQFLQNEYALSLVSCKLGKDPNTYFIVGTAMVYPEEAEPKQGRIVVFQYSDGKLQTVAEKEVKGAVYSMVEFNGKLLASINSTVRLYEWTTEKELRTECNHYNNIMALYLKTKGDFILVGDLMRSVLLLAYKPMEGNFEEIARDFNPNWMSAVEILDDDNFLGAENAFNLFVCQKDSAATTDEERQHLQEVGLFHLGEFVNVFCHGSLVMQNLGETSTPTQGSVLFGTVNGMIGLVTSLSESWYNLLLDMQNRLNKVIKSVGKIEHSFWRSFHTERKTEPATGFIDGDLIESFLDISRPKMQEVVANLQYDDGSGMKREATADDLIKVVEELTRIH
The series is described as follows: Degradation of GSPT1 in KG-1 cells (Western blot). The class given is cell-based. Details: percent GSPT1 degradation: dose or concentration left out as unconfirmed. In general terms: Immunoblotting shows a protein as a band on a membrane.

For series [6] the following is noted: male, SD, rat, in vivo, po, 10 mg/kg.
Method: (§3) Sample collection and preparation: After SPF SD rats (male, 210-230 g, 42-48 days, RILD Liver) in a good growth state were dosed intravenously at 2 mg/kg and orally at 10 mg/kg, blood samples were collected via the orbit at different blood collection time points and transferred to centrifuge tubes containing an anticoagulant; the intravenous blood collection time points were 0.08 hours, 0.25 hours, 0.5 hours, 1 hour, 2 hours, 4 hours, 6 hours, 8 hours, and 24 hours, and the oral blood collection time points were 0.25 hours, 0.5 hours, 1 hour, 2 hours, 4 hours, 6 hours, 8 hours, and 24 hours. The blood samples were immediately centrifuged at 4 °C and 8000 rpm for 10 minutes, and the plasma was collected and stored in an ultra-low-temperature freezer at -80 °C until it was analyzed by LC-MS/MS. Pharmacokinetic data analysis: Pharmacokinetic parameters of the compounds were calculated using pharmacokinetic software in a non-compartmental model. The peak plasma concentration (Cmax) and the time to reach the peak plasma concentration (Tmax) were taken as observation values. Parameters such as the half-life T1/2, the areas under the plasma concentration-time curve AUClast and AUCinf, the apparent volume of distribution Vss, and the clearance rate CL were determined through regression analysis of the linear terminal portion of the logarithmic plasma concentration-time curve and the linear trapezoidal rule.
Series [7] can be described thus: in vivo. The conditions noted are these: male, SD, rat.
Method: as §3
Series [8] can be described thus: in vitro. The settings on record: rat, microsomes.
Method: (§4) 10 mM stock solutions of the test compounds in DMSO were prepared, diluted with acetonitrile and then with PBS, and vortexed, with the DMSO content controlled at 0.1%. The dilute working solutions (10 µL) were incubated with 65 µL of a liver microsome system (30 µL of 100 mM PBS, 25 µL of 20 mM MgCl2, and 10 µL of 5 mg/mL RLMs) and preheated at 37 °C for 5 min. 25 µL of 4 mM NADPH was added to start a reaction. Samples were taken at different time points (0 min, 5 min, 15 min, 30 min, 60 min, and 120 min), and an acetonitrile solution containing an internal standard was added to stop the reaction. After vortexing and centrifugation, the supernatants were collected and analyzed by LC-MS/MS, and the half-lives and clearance rates were calculated.
Series [9] can be described thus: In vivo pharmacokinetic study in rats. The settings on record: rat.
Method: as §3
Series [10] deals with human leukemia cells MV411. The series is described as follows: In vivo pharmacodynamic study in MV411 acute myeloid leukemia xenograft mouse model. Set-up: species or system BABL/c Nude mouse. The conditions noted are these: once daily by oral gavage. As to the method:
The human leukemia cells MV411 (Cell Bank, Chinese Academy of Sciences) used in this experiment were cultured in an IMDM culture medium supplemented with 10% FBS in an incubator containing CO2 at 37 °C. Before the cells were continuously sub-cultured to the tenth generation, MV411 cells in the logarithmic growth phase were used, and the cell concentration was adjusted to 1 × 10^8 cells/mL with a serum-free culture medium. Each BABL/c Nude mouse (Jiangsu GemPharmatech Co., Ltd., female, 4-6 weeks old, 14-16 g) was inoculated with 100 µL of the cell suspension by subcutaneous injection on the right dorsal side (near the axilla) under sterile conditions. When the mean tumor volume of the tumor-bearing mice reached approximately 100 mm^3, the mice were randomly divided into groups, with the tumor volume in each group being roughly the same. The day of grouping and administration was defined as day 0. The animals in each treatment group were given a compound once daily by oral gavage at 15 mg/kg, 30 mg/kg, or 60 mg/kg. The body weight and tumor volume of the animals were measured every other day.
Experimental indicator: The anti-tumor efficacy of the compounds was evaluated using the relative tumor growth inhibition rate (TGI). Tumor weight TGI (%) = {1 - [(final average tumor weight of experimental group)/(final average tumor weight of control group of tumor-bearing mice without administration)]} × 100%. Tumor volume TGI (%) = [1 - relative tumor volume of experimental group/relative tumor volume of control group of tumor-bearing mice without administration] × 100%.

The nature of series [11]: Metabolic stability in in vitro rat liver microsomes. The conditions noted are these: rat.
Method: as §4

Broadly, the IC50 is the midpoint of a concentration-inhibition curve. As usually defined, the AUC(0-inf) is the area under the concentration-time curve extrapolated to infinity. For orientation: AUC(0-t) means exposure summed from dosing to a finite time, without extrapolation to infinity. A word on the Vd: it is a proportionality between amount in the body and measured concentration, not a real space. Broadly, the clearance is a measure of how efficiently the substance is removed, as volume per time. Broadly, the half-life is the time needed for the level to fall by half in the phase considered. As a reminder, the Cmax is the maximum level reached in the sampled fluid or tissue. The Tmax is the time from dosing to the highest level. One may read the microsomal CLint as a measure of how fast metabolising enzymes remove a compound, apart from limits set by blood flow. In turn, `O=C1CCC(N2Cc3cc(CNC(=O)C(F)(F)c4ccc(Cl)cc4)ccc3C2=O)C(=O)N1` (centres unmarked) [CC-90009] registered an IC50 in series [1] of 10 to 100 nM. The compound further had a concentration for half-maximal inhibition (IC50) in series [2] of 10 to 100 nM. In [3], this compound registered an IC50 of 10 to 100 nM. The compound also returned a concentration for half-maximal inhibition (IC50) in [4] of 100 to 1000 nM. Also, the percent GSPT1 degradation at 0.2 µM in [5] (KG-1 cells, compound concentration 200 nM, 4 hours) lay within 50 to 80%. Moreover, the F in [6] was found to be 31.2±9.1%. In addition, in [7] (iv, 2 mg/kg), the area under the curve AUC(0-inf) turned out to be 1200 ± 304 ng·h/mL, the AUC(0-t) is 1200 ng·h/mL, the C0 was 1870 ± 492 ng/mL and the distribution volume (Vd) stood at 2.85 ± 0.63 L/kg. In [7] (iv, 2 mg/kg), this compound showed a clearance of 28.8 ± 6.4 mL/min/kg and a half-life of 86.4 ± 15.6 min. Moreover, in series [7] (po, 10 mg/kg), the AUC(0-inf) was determined as 1896 ± 14 ng·h/mL, the AUC(0-t) was 1892 ± 12 ng·h/mL, the highest level (Cmax) was 616 ± 53 ng/mL and the Tmax was 1.5 ± 0.71 h. The compound further showed a half-life in [7] (po, 10 mg/kg) of 175 ± 16.8 min. In series [8], this compound showed a half-life of 77.5 min and a microsomal CLint of 17.9 µL/min/mg.

Regarding `O=C1CCC(N2Cc3cc(CNC(=O)C4=Cc5cc(OC(F)(F)F)ccc5OC4)ccc3C2=O)C(=O)N1` (centres unmarked) [Compound A-10, N-((2-(2,6-Dioxopiperidin-3-yl)-1-oxoisoindolin-5-yl)methyl)-6-trifluoromethoxy-2H-chromene-3-carboxamide], the IC50 in series [1] lay within 10 to 100 nM. Besides, in series [2], the IC50 fell in the range of 1 to 10 nM. In series [9] (male, SD, plasma, iv, 2 mg/kg), this compound came in with a total exposure AUC(0-inf) of 4350 ± 1200 ng·h/mL, an AUC(0-t) of 4310 ± 1200 ng·h/mL, a C0 of 16700 ± 4330 ng/mL and a Vd of 0.42 ± 0.13 L/kg. In series [9] (male, SD, plasma, iv, 2 mg/kg), this compound had a clearance of 8.1 ± 2.5 mL/min/kg and a half-life of 91.8 ± 17.4 min. Further, in series [9] (male, SD, plasma, po, 10 mg/kg), the AUC(0-inf) is 4980 ± 2740 ng·h/mL, the AUC(0-t) is 4950 ± 2770 ng·h/mL, the highest level (Cmax) was 3460 ± 1540 ng/mL and the time to peak (Tmax) was found to be 19.8 ± 8.4 min. In addition, the half-life in series [9] (male, SD, plasma, po, 10 mg/kg) is 182 ± 37.8 min. The compound also returned a F in [9] (PO 10mg/kg) of 22.9±12.6%. The “exposure level relative to CC-90009” value in series [9] (administered orally) is “nearly three times”. For the same compound, in series [9] (intravenous injection), the “clearance rate relative to CC-90009” value was “one third” and the “plasma drug exposure level relative to CC-90009” value is listed as “nearly four times”. In series [3], this compound gave a half-maximal inhibitory concentration (IC50) of 10 to 100 nM. The same compound came in with a concentration for half-maximal inhibition (IC50) in series [4] of 1 to 10 nM. The percent GSPT1 degradation in series [5] (KG-1, 4 h, read-out: GSPT1 degradation) was over 80%. The “degradation of GSPT1 in KG-1 and MV4-11 cells” value in series [5] (KG-1 and MV4-11 cells, FIGs. 1 and 2) is “concentration-dependent and time-dependent”. Also, the “percentage of degradation of GSPT1 protein” value in [5] (KG-1 cells, 200 nM, 4 hours) is reported as “higher than 80%”. Further, in [10], the “weight loss in mice” value is listed as “no significant weight loss”. In series [11], this compound gave a half-life of 166 min and an intrinsic clearance (microsomal CLint) of 8.35 µL/min/mg.
